In assay [1] the target is T1, human norepinephrine transporter (hNET) (Homo sapiens, UniProt P23975).
T1 construct: expressed in transfected cells; host or cells: HEK-293 (Clone: HEK-hNET #2)
As to the kind of experiment: hNET scintillation proximity assay (SPA), competition with [3H]-Nisoxetine. The format is binding. To be noted: membranes of HEK-293 cells expressing recombinant hNET, Ki by Cheng-Prusoff. As to the method:
Screening for Compounds Active at Human Norepinephrine Transporter (HNET) Using a Scintillation Proximity Assay (SPA)
This assay was used to determine the affinity of ligands for the hNET transporter by competition with [^3H]-Nisoxetine. As in the hSERT assay of the above example, receptor-containing membranes were pre-coupled to the SPA beads and the binding of the appropriate radioligand to the transporter was measured. The light emission was proportional to the amount of bound radioligand, with unbound radioligand producing no signal. […]
Cell membranes were prepared using a membrane preparation buffer of 50 mM TRIS (pH 7.4). […] After a second centrifugation, the pellet was re-homogenized and brought to a final volume determined during the assay. […]
^3[H] […] The mixtures were allowed to stand at room temperature for one hour, and were then counted on a Packard TopCount LCS, a generic SPA counting protocol settings (Energy Range: Low, Efficiency Mode: Normal, Region A: 1.50-35.00, Region B: 1.50-256.00, Count Time (min.): 0.40, Background Subtract: none, Half-Life Correction: no, Quench Indicator: tSIS, Platemap blank subtraction: No, Cross talk reduction: Off).
(§1) The % inhibition was calculated for each compound tested [(Compound CPM at maximum concentration-Non-Specific CPM)/Total CPM*100]. […]
A general note: In a scintillation proximity assay essentially only radioactivity close to the scintillant gives light.

In assay [2] the target is T2, human dopamine transporter (hDAT) (Homo sapiens, UniProt Q01959).
T2 construct: expressed in transfected cells; host or cells: HEK-293
As to the kind of experiment: hDAT scintillation proximity assay (SPA), competition with [3H]-Vanoxerine. To be noted: HEK-293 cells expressing recombinant hDAT, Ki by Cheng-Prusoff. The format is binding. As to the method:
Screening for Compounds Active at Human Dopamine Transporter Using a Scintillation Proximity Assay (SPA)
This assay was used to determine the affinity of ligands for the dopamine transporter by competition with [^3H]-Vanoxerine.
HEK-293 cells (Tatsumi et al., Eur. J. Pharmacol. 1997, 30, 249-258) stably expressing recombinant hDAT were maintained with media (DMEM hi glucose with 10% FBS, 300 μg/ml G418 and 2 mM L-Glutamine) and incubated at 37° C. with 5% CO2. Cells were plated four hours prior to experiment by placing approximately 30,000 cells per well (in PBS) on white, opaque Cell-Tak coated 96 well plates. Extra buffer was apriated from the cell plates using an ELx405 plate washer.
^3[H] vanoxerine (GBR 12909) radioligand, specific activity approximately 59 Ci/mmol, stock concentration, 400 nM, and 50 mM Tris-HCl, 300 mM NaCl, (pH 7.4) buffers were used for Scintillation Proximity Assay IC50/Ki determination. […]
as §1
[formula] where max=total binding, min=non specific binding, x=concentration (M) of the tested compound and n=Hill slope. The inhibition dissociation constant (Ki) of each compound was determined according to the method of Cheng-Prusoff and then converted into negative logarithm (pKi) of the Ki.

From patent US7998963B2, “Arylpiperazine derivatives and uses thereof” (Roche Palo Alto LLC, priority 2008, dated 2011) come the findings set out here.

T2 sequence (Q01959 whole entry): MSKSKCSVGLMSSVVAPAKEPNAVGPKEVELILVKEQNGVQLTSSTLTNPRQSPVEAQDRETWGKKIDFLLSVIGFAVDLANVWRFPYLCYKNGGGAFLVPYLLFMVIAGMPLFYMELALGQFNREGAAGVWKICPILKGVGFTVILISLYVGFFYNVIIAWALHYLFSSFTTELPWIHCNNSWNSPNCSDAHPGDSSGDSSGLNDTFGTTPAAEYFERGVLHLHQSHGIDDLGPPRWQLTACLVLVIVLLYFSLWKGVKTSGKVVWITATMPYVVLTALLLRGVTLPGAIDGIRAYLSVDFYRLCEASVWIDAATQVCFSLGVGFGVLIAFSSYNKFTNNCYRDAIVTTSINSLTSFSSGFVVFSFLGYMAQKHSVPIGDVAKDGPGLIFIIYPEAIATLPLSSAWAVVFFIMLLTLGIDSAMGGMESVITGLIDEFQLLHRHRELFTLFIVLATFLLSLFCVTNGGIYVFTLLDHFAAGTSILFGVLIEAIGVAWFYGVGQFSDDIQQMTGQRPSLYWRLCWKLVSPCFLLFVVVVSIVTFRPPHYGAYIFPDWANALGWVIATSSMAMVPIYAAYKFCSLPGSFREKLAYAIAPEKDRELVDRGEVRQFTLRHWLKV
T1 sequence (P23975 whole entry): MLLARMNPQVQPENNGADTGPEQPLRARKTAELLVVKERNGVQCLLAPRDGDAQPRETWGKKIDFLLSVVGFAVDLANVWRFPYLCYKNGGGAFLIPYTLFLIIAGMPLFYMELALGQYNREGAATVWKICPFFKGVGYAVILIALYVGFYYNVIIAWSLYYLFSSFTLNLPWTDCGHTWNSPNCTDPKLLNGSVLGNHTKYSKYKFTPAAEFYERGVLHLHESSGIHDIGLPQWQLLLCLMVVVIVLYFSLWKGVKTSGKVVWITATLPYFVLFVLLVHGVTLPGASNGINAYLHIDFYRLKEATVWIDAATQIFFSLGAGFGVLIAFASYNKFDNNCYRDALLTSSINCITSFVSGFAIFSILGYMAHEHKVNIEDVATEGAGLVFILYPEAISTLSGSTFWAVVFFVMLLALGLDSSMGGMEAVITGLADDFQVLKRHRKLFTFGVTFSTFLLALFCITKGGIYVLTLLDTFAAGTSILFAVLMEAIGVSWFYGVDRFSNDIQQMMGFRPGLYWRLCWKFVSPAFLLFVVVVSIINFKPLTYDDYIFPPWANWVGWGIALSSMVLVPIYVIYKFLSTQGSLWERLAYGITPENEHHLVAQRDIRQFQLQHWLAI

As usually defined, the Ki is a measure of affinity in units of concentration, obtained from inhibition or displacement. For the compound `c1ccc(OCC2CNCCN2c2ccc3[nH]ncc3c2)cc1` (centres unmarked) [5-(2-Phenoxymethyl-piperazin-1-yl)-1H-indazole], the Ki in assay [1] was roughly 6.31 nM.

Regarding `c1cc2[nH]ncc2cc1N1CCNC[C@H]1CCC1CC1` [5-[(R)-2-(2-Cyclopropyl-ethyl)-piperazin-1-yl]-1H-indazole], the Ki in assay [2] is roughly 12.6 nM.
